# In article PMC10038035 (Journal of Enzyme Inhibition and Medicinal Chemistry, 2023):
# Like-named read-outs stand apart in the source and are kept apart here.
# Columns and labels:
# [1] = molecular target: T1, prion protein (recombinant mouse PrP, recPrP) (Mus musculus, UniProt P04925); test: biochemical
# T1 construct: gene Prnp
# [2] = molecular target: T1, prion protein (recombinant mouse PrP, recPrP); test: biochemical; remark: listed apart in the source
# [3] = molecular target: T1, prion protein (recombinant mouse PrP, recPrP); format: biochemical
# T1 sequence (P04925 23-231 limits assumed): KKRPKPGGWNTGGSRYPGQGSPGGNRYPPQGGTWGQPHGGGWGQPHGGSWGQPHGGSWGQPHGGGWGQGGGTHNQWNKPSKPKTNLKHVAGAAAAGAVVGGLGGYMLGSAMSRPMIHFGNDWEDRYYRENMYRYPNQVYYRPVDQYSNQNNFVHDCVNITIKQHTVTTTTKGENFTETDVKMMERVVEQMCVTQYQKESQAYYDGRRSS
smiles,measurement,setting,value
O=C(NNC(=S)Nc1ccc(Cl)cc1)c1cc2cccc(O)c2cc1O [7x],EC50,[1],4.6 µM
CCOc1cc(C(=O)NNC(=S)Nc2ccc(Cl)cc2)c(O)c2ccccc12 [7y],EC50,[2],5 µM
Cc1cc(Nc2ccc(NC(=O)c3ccc(Nc4ccnc5ccccc45)cc3)cc2)nc(N)n1 [SGI-1027],"PrP aggregate formation assay (ThT fluorescence) with purified recPrP, single co",[3],The anti-PrP aggregation activity of 7x and 7y was further compared to that of SGI-1027 (a positive control).
